Laboratory results taken from patent publication US9999614B2, “Combination for the prophylaxis and treatment of behavioural, mental, and cognitive disorders” (LTD “VALENTA-INTELLEKT”, priority 2012, dated 2018).

Tested on: amnesia in mice, as caused by electroconvulsive shock (ECS)
Assay: Conditioned passive avoidance reflex (CPAR), amnesia caused by electroconvulsive shock (ECS)
Format: in vivo
Conditions: for Latent time of entering into the dark chamber / Number of mice not entered into the dark chamber, % / Number of mice taught to CPAR: + ECS, i.p. once a day for 5 days, Melatonin 5 mg, Memantin 10 mg mono-use; for Number of mice taught to CPAR: count of mice, human doses converted to mice; for Effect on the amnestic action of ECS (in words): summary of Tables 1-2, p<0.05 for the compositions
Procedure: For this, the active substances Melatonin 3 mg/Memantin 10 mg, Melatonin 5 mg/Memantin 20 mg, Melatonin 10 mg/Memantin 20 mg were taken, and doses recommended for human beings were converted into doses adapted for mice according to the formula “(active substance/70(average weight of a human being))×7”. Then the compositions were dissolved in 5 mL of the solution and, according to the given formula, introduced to animals intraperitoneally once a day for 5 days.
The action of the compositions on learning and memory factors were studied on white non-linear male mice having a weight 20+/−4 g, using the conditioned passive avoidance reflex (CPAR) of electroconvulsive shock (ECS) (Ya. Buresh et al., 1991; K. M. Dyumaev et al., 1995).
Electroconvulsive shock (ECS) was used as the amnesic action, the electric current parameters were: 50 Hz, 50 mA, 0.3 s, which was applied to mice with the use of electrodes in the shape of clips fixed on auricles, transpineally, just after teaching CPAR (see, “Manual for Experimental (Pre-Clinical) Studies of New Pharmacological Substances”, 2000). Pseudo-electroconvulsive shock was caused to the animals by applying pineal electrodes for causing ECS without applying electric current. The mice were tested for maintaining CPAR in certain time intervals after ECS.
The CPAR test is the main model for evaluating substance influences on formation and replication of short-time memory in a normal condition and in an abnormal condition, i.e., induced amnesia. The CPAR is the most informative method among the methods that are used today for evaluating efficiency of substances with influence on the CNS of mammals (see, “Manual for Experimental (Pre-Clinical) Studies of New Pharmacological Substances”, 2000). The CPAR (conditioned passive avoidance reflex in a dark, light chamber) was taught to the mice on the basis of electrodermal response according to the method proposed by Cumin et al. (1982) with due regard to the recommendations given by Mondadori et al. (1990). The installation for mice, as produced by Lafayette Instrument Co., USA, was a black chamber with the electrode floor and a white plastic platform that was arranged on the floor in the center of the chamber. The mice, one by one, were put onto the plastic platform. The animals went/jumped down onto the electrode floor where they received an electric current shock, i.e., punishment. Electric current was supplied after the time when an animal stood on the floor with all its four legs. The natural response of the animals is to go back to the current-free or safe platform. After several minutes of teaching, 5 minutes on the average, mice developed CPAR and remained on the safe platform. Tests for memorizing CPAR were conducted in successive time intervals after amnesic action. In a case where an animal went/jumped down onto the platform within 1 minute, it was recorded as having retrograde amnesia of the passive avoidance skill. The compositions were studied in comparison with Melatonin 5 mg (mono-use) and Memantin 10 mg (mono-use), according to the above formula for adapting to animal models.

| Compound | Latent time of entering into the dark chamber (1 day after teaching) | Number of mice not entered into the dark chamber, % (1 day after teaching) | Latent time of entering into the dark chamber (3 days after teaching) | Number of mice not entered into the dark chamber, % (3 days after teaching) | Latent time of entering into the dark chamber (7 days after teaching) | Number of mice not entered into the dark chamber, % (7 days after teaching) | Latent time of entering into the dark chamber (10 days after teaching) | Number of mice not entered into the dark chamber, % (10 days after teaching) | Number of mice taught to CPAR | Effect on the amnestic action of ECS (in words) |
| --- | --- | --- | --- | --- | --- | --- | --- | --- | --- | --- |
| COc1ccc2[nH]cc(CCNC(C)=O)c2c1 [Melatonin, N-acetyl-5-methoxytriptamine] | 108.3 ± 21.7 s | 66.7% | 105.6 ± 17.4 s | 58.3% | 103.3 ± 21.2 s | 58.3% | 103.2 ± 20.6 s | 33.3% | 9 | changed the amnestic action |
| CC12CC3CC(C)(C1)CC(N)(C3)C2 [Memantin] | 104.6 ± 19.2 s | 36.3% | 109.5 ± 22.1 s | 54.5% | 110.1 ± 18.9 s | 63.6% | 109.8 ± 21.1 s | 63.6% | 8 | changed the amnestic action |
